Experimental data published in patent US9157077B2, “Aminopyrimidine kinase inhibitors” (Jasco Pharmaceuticals, LLC, priority 2009, dated 2015).
Like-named read-outs stand apart in the source and are kept apart here.

Columns and labels:
[1] = molecular target: Enzyme (kinases of Table 30) (Homo sapiens, UniProt P11309); assay: IC50 of Compound (nM) (ATP present at Km of enzyme), Table 30; format: biochemical
[2] = molecular target: Enzyme (kinases of Table 30) (Homo sapiens, UniProt Q86V86); assay: as above; format: biochemical
[3] = molecular target: Enzyme (kinases of Table 30) (Homo sapiens, UniProt Q9P1W9); assay: as above; format: biochemical
Enzyme (kinases of Table 30) (Homo sapiens, UniProt Q9P1W9), sequence (Q9P1W9 whole entry): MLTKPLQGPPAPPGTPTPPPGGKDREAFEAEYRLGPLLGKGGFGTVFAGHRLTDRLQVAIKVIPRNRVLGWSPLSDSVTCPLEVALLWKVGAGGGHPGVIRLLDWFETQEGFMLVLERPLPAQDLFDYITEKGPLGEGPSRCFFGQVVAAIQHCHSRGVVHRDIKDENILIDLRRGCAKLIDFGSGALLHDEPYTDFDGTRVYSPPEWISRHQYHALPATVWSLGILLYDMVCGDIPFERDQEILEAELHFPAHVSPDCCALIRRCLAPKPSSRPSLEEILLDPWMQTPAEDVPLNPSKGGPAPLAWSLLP

[4] = molecular target: T1, Enzyme (kinases of Table 30) (Homo sapiens, UniProt P68400); assay: as above; format: biochemical; conditions: CK2(h), ATP present at Km of enzyme
T1 construct: IC50 of Compound, CK2(h); other: CK2(h), ATP present at Km of enzyme
T1 sequence (P68400 whole entry): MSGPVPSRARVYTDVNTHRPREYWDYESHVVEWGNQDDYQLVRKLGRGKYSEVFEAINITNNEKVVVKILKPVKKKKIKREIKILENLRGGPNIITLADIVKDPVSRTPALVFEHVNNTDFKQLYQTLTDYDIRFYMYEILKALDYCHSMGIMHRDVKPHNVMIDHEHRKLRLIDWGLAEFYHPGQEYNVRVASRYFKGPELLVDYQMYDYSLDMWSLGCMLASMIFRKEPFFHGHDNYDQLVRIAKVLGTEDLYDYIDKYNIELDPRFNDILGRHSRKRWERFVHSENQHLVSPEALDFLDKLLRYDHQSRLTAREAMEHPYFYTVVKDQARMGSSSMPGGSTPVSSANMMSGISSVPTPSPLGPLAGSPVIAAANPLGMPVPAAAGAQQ

cell lines = assay: Selected cell proliferation inhibition data: cytotoxicity and IC50 determination (MTS/PMS, 72 hours), Tables 27 and 28; format: cell-based; conditions: Homo sapiens; for inhibition at 30 µM: 30 μM compound; for IC50: 72 hours, MTS
Experimental: Selected Cell Proliferation Inhibition Data
All cells were cultured in media supplemented with 10% FBS except for which are marked specially, in the temperature of 37° C., 5% CO2 and 95% humidity. All culture media were purchased from GIBCO (USA, IMDM Cat. 12200-036; RPMI Medium 1640 Cat. 31800-022; 2-mercaptoethanol Cat. 21985-023).
• CellTiter 96® AQueous MTS reagent powder (Cat. No.: G11 12, Promega. Store MTS Reagent Powder desiccated at 4° C. protected from light.) • Phenazine methosulfate (PMS) (Product No.: P9625, SIGMA. Store PMS Powder desiccated at 4° C. protected from light.) Preparation of PMS Solution:
The following protocol is recommended for the preparation of 21 mL of MTS solution (sufficient for ten 96-well plates). • a. Select a light-protected container or wrap a container with foil. • b. Add 21 mL of DPBS to the container. • c. Weigh out 42 mg of MTS Reagent Powder and add to DPBS. • d. Mix at moderate speed on a magnetic stir plate for 15 minutes or until the MTS is completely dissolved. • e. Measure the pH of the MTS solution. The optimum pH is between pH 6.0 to 6.5. If the solution is above pH 6.5, adjust to pH 6.5 with 1N HC1. • f. Filter-sterilize the MTS solution through a 0.2 μm filter into a sterile, light protected container. • g. Store the MTS solution at −20° C., protected from light. Preparation of the Mixture of MTS/PMS: • a. In order to prepare reagents sufficient for one 96-well plate containing cells cultured in a 100 μL volume, thaw the MTS solution and the PMS solution. It should take approximately 90 minutes at room temperature or 10 minutes in a 37° C. water bath to completely thaw the 20 mL size of MTS solution. […] Remove 2.0 mL of MTS solution from the amber reagent bottle using aseptic technique and transfer to a test tube. • c. Add 100 μL of PMS solution to the 2.0 mL of MTS solution immediately before addition to the culture plate containing cells. • d. Gently swirl the tube to ensure complete mixing of the combined MTS/PMS solution. Equipment:
• 1. The cells were harvested respectively during the logarithmic growth period and counted with hemocytometer. The cell viability was over 98% by trypan blue exclusion. • 2. Cell concentrations were adjusted to 2.22×10^5 or 1.11×10^5 or 5.56×10^4 cells/mL with respective medium. • 3. 90 μL cell suspensions were added to 96-well plates (triplicates for each cell concentration), the final cell densities were 2×10^4 or 1×10^4 or 5×10^3 cells/well. The density of 5×10^3 cells/well was used for the first test. The appropriate cell density was determined and adjusted according to the results of the first test. • 4. The next day, test article or positive drugs were dissolved with DMSO as stock solution at the concentration of 20 mM. • 5. 10 μL drug solution was dispensed in each well (triplicate for each drug concentration). • 6. Plates were cultured for another 72 hours, then measured by means of MTS assay. • 7. MTS/PMS solution was prepared immediately prior to use. 20 μL of the mixture was introduced into each well of the 96-well assay plate containing 100 μL culture medium. (The final reaction volume was 120 μL). • 8. Plate was incubated for 1-4 hours at 37° C. in a humidified 5% CO2 atmosphere. • 9. Absorbance at 490 nm was recorded using SpectraMAX Plus microplate spectrophotometer. Data Analysis:
The software of GraphPad Prism version 5 was used to calculate IC50. The graphical curves were fitted using a nonlinear regression model with a sigmoidal dose.

[5] = Pim-1(h), ATP present at Km of enzyme, read-out: IC50 of Compound, Pim-1(h)
[6] = Pim-3(h), ATP present at Km of enzyme, read-out: IC50 of Compound, Pim-3(h)
[7] = Pim-2(h), ATP present at Km of enzyme, read-out: IC50 of Compound, Pim-2(h)
[8] = MV4-11 cell line, read-out: Percent inhibition at 30 μM of Compound, MV4-11
[9] = MV4-11 cell line, read-out: IC50 values, MV4-11
[10] = NCI-H929 cell line, read-out: Percent inhibition at 30 μM of Compound, NCI-H929
[11] = NCI-H929 cell line, read-out: IC50 values, NCI-H929
[12] = RPMI 8226 cell line, read-out: Percent inhibition at 30 μM of Compound, RPMI 8226
[13] = RPMI 8226 cell line, read-out: IC50 values, RPMI 8226

Enzyme (kinases of Table 30) (Homo sapiens, UniProt P11309), sequence (P11309 whole entry): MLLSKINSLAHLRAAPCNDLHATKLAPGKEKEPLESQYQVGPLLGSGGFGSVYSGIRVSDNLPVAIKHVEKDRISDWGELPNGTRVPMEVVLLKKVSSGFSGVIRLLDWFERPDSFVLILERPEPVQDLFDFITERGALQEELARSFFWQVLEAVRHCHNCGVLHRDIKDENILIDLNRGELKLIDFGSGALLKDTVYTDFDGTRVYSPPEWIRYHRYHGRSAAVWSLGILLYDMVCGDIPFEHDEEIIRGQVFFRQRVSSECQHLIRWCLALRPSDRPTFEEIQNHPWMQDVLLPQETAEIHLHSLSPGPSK

| SMILES | IC50 [1, 5] [nM] | IC50 [2, 6] [nM] | IC50 [3, 7] [nM] | inhibition at 30 µM (cell lines; [8]) [%] | IC50 (cell lines; [9]) [nM] | inhibition at 30 µM (cell lines; [10]) [%] | IC50 (cell lines; [11]) [nM] | inhibition at 30 µM (cell lines; [12]) [%] | IC50 (cell lines; [13]) [nM] | other results |
| --- | --- | --- | --- | --- | --- | --- | --- | --- | --- | --- |
| CC1CCCN(c2nccc(/C=C3\SC(=O)NC3=O)n2)C1 (stereo not drawn) [compound 117] | 164 | 436 | 50 | – | – | – | – | – | – | – |
| CN(c1nccc(/C=C2\SC(=O)NC2=O)n1)C1CCCCC1 [compound 119] | 186 | 267 | 16 | – | – | – | – | – | – | IC50 [4]: 176 nM |
| O=C1NC(=O)/C(=C/c2ccnc(N3CCC(CNCC4CCN4)CC3)n2)S1 (stereo not drawn) [compound 208] | 288 | 65 | 43 | – | – | – | – | – | – | IC50 [4]: 129 nM |
| Cc1cc(CNCC2CCN(c3nccc(/C=C4\SC(=O)NC4=O)n3)CC2)c2ccccc2n1 [compound 181] | 79 | 34 | 44 | – | – | – | – | – | – | – |
| O=C1NC(=O)/C(=C/c2ccnc(N3CCC(CNCc4ccc5cc(F)ccc5n4)CC3)n2)S1 [Example 191, (Z)-5-((2-(4-((((6-fluoroquinolin-2-yl)methyl)amino)methyl)piperidin-1-yl)pyrimidin-4-yl)methylene)thiazolidine-2,4-dione] | – | – | – | 87.4 | 2400 | 94 | 3260 | 93.1 | 6860 | – |
| O=C1NC(=O)/C(=C/c2ccnc(N3CCC(CNCc4ccccn4)CC3)n2)S1 [compound 172] | 157 | 46 | 142 | – | – | – | – | – | – | – |
| CC1CC(C)CN(c2nccc(/C=C3\SC(=O)NC3=O)n2)C1 (stereo not drawn) [compound 99] | 137 | 199 | 18 | – | – | – | – | – | – | – |
| Cc1cccc(CNCC2CCN(c3nccc(/C=C4\SC(=O)NC4=O)n3)CC2)n1 [compound 174] | 58 | 16 | 75 | – | – | – | – | – | – | – |
| O=C1NC(=O)/C(=C/c2ccnc(NC3CNc4ccccc4C3)n2)S1 (stereo not drawn) [Example 140, (Z)-5-((2-((1,2,3,4-tetrahydroquinolin-3-yl)amino)pyrimidin-4-yl)methylene)thiazolidine-2,4-dione] | – | – | – | 94.3 | 5510 | 96.7 | 8840 | 65.3 | 11200 | – |
| Cc1ccc(N2CCN(c3nccc(/C=C4\SC(=O)NC4=O)n3)CC2)cc1 [Example 9, (Z)-5-((2-(4-(p-tolyl)piperazin-1-yl)pyrimidin-4-yl)methylene)thiazolidine-2,4-dione] | – | – | – | 91.1 | 6780 | 91.4 | 11500 | 71.2 | 16100 | – |
| O=C1NC(=O)/C(=C/c2ccnc(N3CCC(CNCc4cccc(-c5ccc(F)cc5)n4)CC3)n2)S1 [compound 204] | 99 | 109 | 217 | – | – | – | – | – | – | – |
| O=C1NC(=O)/C(=C/c2ccnc(N3CCCC4NCCCC43)n2)S1 (stereo not drawn) [compound 155] | – | – | – | – | – | – | – | – | – | IC50 [1]: 19 nM; IC50 [2]: 9 nM; IC50 [3]: 14 nM |
| COc1cccc(CNCC2CCN(c3nccc(/C=C4\SC(=O)NC4=O)n3)CC2)n1 [Example 183, (Z)-5-((2-(4-((((6-methoxypyridin-2-yl)methyl)amino)methyl)piperidin-1-yl)pyrimidin-4-yl)methylene)thiazolidine-2,4-dione] | – | – | – | 94.4 | – | 98.6 | 4600 | 82.3 | 9600 | – |
| O=C1NC(=O)/C(=C/c2ccnc(N3CCC(CNCc4nccc5ccccc45)CC3)n2)S1 [Example 182, (Z)-5-((2-(4-(((isoquinolin-1-ylmethyl)amino)methyl)piperidin-1-yl)pyrimidin-4-yl)methylene)thiazolidine-2,4-dione] | – | – | – | 91.1 | 2020 | 96.5 | 7080 | 90.2 | 11900 | – |
| O=C1NC(=O)/C(=C/c2ccnc(N3CCC(CNCc4cccc(-c5cccs5)n4)CC3)n2)S1 [compound 205] | 54 | 38 | 199 | – | – | – | – | – | – | – |
| O=C1NC(=O)/C(=C/c2ccnc(N3CCCC4NCCCC43)n2)S1 (stereo not drawn) [Example 155, (Z)-5-((2-(octahydro-1,5-naphthyridin-1(2H)-yl)pyrimidin-4-yl)methylene)thiazolidine-2,4-dione] | – | – | – | 97.6 | 12500 | 73.7 | 3960 | 53.9 | – | – |
| O=C1NC(=O)/C(=C/c2ccnc(N3CCC(CNCc4ccc5ccccc5n4)CC3)n2)S1 [compound 180] | 13 | 15 | 15 | – | – | – | – | – | – | – |
| COc1cccc2ccc(CNCC3CCN(c4nccc(/C=C5\SC(=O)NC5=O)n4)CC3)nc12 [Example 189, (Z)-5-((2-(4-((((8-methoxyquinolin-2-yl)methyl)amino)methyl)piperidin-1-yl)pyrimidin-4-yl)methylene)thiazolidine-2,4-dione] | – | – | – | 97.9 | 4710 | 98.5 | 3040 | 99.9 | 8320 | – |
| NCc1cccc(CNc2nccc(/C=C3\SC(=O)NC3=O)n2)c1 [compound 159] | > 1000 | 231 | 104 | – | – | – | – | – | – | – |
| O=C1NC(=O)/C(=C/c2ccnc(N3CCC(CNCc4ccc5ccccc5n4)CC3)n2)S1 [Example 180, (Z)-5-((2-(4-(((quinolin-2-ylmethyl)amino)methyl)piperidin-1-yl)pyrimidin-4-yl)methylene)thiazolidine-2,4-dione] | – | – | – | 90.7 | 11000 | 100 | 10900 | 79.7 | 9140 | – |
| Nc1cccc2c1CCN(c1nccc(/C=C3\SC(=O)NC3=O)n1)C2 [Example 120, (Z)-5-((2-(5-amino-3,4-dihydroisoquinolin-2(1H)-yl)pyrimidin-4-yl)methylene)thiazolidine-2,4-dione] | – | – | – | 95.1 | 4050 | 89.8 | 2810 | 76.4 | 1540 | – |
| O=C1NC(=O)/C(=C/c2ccnc(N3CCC(CNCc4ccc5cc(F)ccc5n4)CC3)n2)S1 [compound 191] | 6 | 5 | 23 | – | – | – | – | – | – | – |
| Cc1cc(CNCC2CCN(c3nccc(/C=C4\SC(=O)NC4=O)n3)CC2)c2ccccc2n1 [Example 181, (Z)-5-((2-(4-((((2-methylquinolin-4-yl)methyl)amino)methyl)piperidin-1-yl)pyrimidin-4-yl)methylene)thiazolidine-2,4-dione] | – | – | – | 96.6 | 1200 | 93.5 | 4420 | 82.2 | 3410 | – |
